Assay results taken from patent publication US7402589B2, “Tri-substituted ureas as cytokine inhibitors” (The Procter & Gamble Company, priority 2004, dated 2008).

System: TNF-α
Assay: TNF-α inhibition in lipopolysaccharide (LPS) stimulated human monocytic cells (THP-1)
Type: cell-based
Conditions: LPS (1 μg/mL) stimulated THP-1 cells, 4 hours, human TNF-α by ELISA
Description: In addition, Tumor Necrosis Factor, TNF-α, inhibition can be measured by utilizing lipopolysaccharide (LPS) stimulated human monocytic cells (THP-1) as described in: • i) K. M. Mohler et al., “Protection Against a Lethal Dose of Endotoxin by an Inhibitor of Tumour Necrosis Factor Processing”, Nature, 370, pp 218-220 (1994). • ii) U.S. Pat. No. 6,297,381 B1 Cirillo et al., issued Oct. 2, 2001, incorporated by reference and reproduced herein below in relevant portion thereof.
The inhibition of cytokine production can be observed by measuring inhibition of TNF-α in lipopolysaccharide stimulated THP cells. All cells and reagents are diluted in RPMI 1640 with phenol red and L-glutamine, supplemented with additional L-glutamine (total: 4 mM), penicillin and streptomycin (50 units/mL each) and fetal bovine serum (FBS 3%) (GIBCO, all conc. Final). Assay is performed under sterile conditions, only test compound preparation is non-sterile. Initial stock solutions are made in DMSO followed by dilution into RPMI 1640 2-fold higher than the desired final assay concentration. Confluent THP.1 cells (2×10^7 cells/mL, final conc.; American Type Culture Company, Rockville, Md.) are added to 96 well polypropylene round bottomed culture plates (Costar 3790; sterile) containing 125 μL test compound (2-fold concentrated) or DMSO vehicle (controls, blanks). DMSO concentration should not exceed 0.2% final. Cell mixture is allowed to preincubate for 15 minutes at 37° C., 5% CO2 prior to stimulation with lipopolysaccharide (LPS, 1 μg/mL final; Sigma L-2630, from E. coli serotype 0111.B4; stored as 1 mg/mL stock in endotoxin screened diluted H2O vehicle at −80° C.). Blanks (unstimulated) receive H2O vehicle; final incubation volume is 250 μL. Incubation (4 hours) proceeds as described above. Assay is to be terminated by centrifuging plates 5 minutes at room temperature, 1600 rpm […]; supernatants are then transferred to clean 96 well plates and stored at −80° C. until analyzed for human TNF-α by a commercially available ELISA kit (Biosource #KHC3015, Camarillo, Calif.). The calculated IC50 value is the concentration of the test compound that caused a 50% decrease in the maximal TNF-α production.

SMILES | IC50
COc1ccc(N(C(=O)NCc2ccccc2Cl)c2ccnc(N[C@@H](C)C(C)(C)O)n2)cc1 [1-(4-Methoxyphenyl)-1-{2-[(1S)-2-hydroxy-1,2-dimethyl-propylamino]-pyrimidin-4-yl}-3-(2-chlorobenzyl)-urea] | 9 nM
O=C(NCc1ccccc1Cl)N(c1ccc(F)cc1)c1ccnc(NC2CCOCC2)n1 [1-(4-Fluorophenyl)-1-[2-(tetrahydropyran-4-ylamino)-pyrimidin-4-yl]-3-(2-chlorobenzyl)-urea] | 16 nM
COc1ccc(N(C(=O)NCc2ccccc2F)c2ccnc(N[C@@H](C)C(C)(C)O)n2)cc1 [1-(4-Methoxyphenyl)-1-{2-[(1S)-2-hydroxy-1,2-dimethyl-propylamino]-pyrimidin-4-yl}-3-(2-fluorobenzyl)-urea] | 13 nM
COc1ccc(N(C(=O)NCc2ccccc2OC)c2ccnc(N[C@@H](C)C(C)(C)O)n2)cc1 [1-(4-Methoxyphenyl)-1-{2-[(1S)-2-hydroxy-1,2-dimethyl-propylamino]-pyrimidin-4-yl}-3-(2-methoxybenzyl)-urea] | 15 nM
C[C@H](Nc1nccc(N(C(=O)NCc2ccccc2Cl)c2ccc(F)cc2)n1)C(C)(C)O [1-(4-Fluorophenyl)-1-{2-[(1S)-2-hydroxy-1,2-dimethyl-propylamino]-pyrimidin-4-yl}-3-(2-chlorobenzyl)-urea] | 14 nM
COc1ccc(N(C(=O)NCc2ccccc2C)c2ccnc(N[C@@H](C)C(C)(C)O)n2)cc1 [1-(4-Methoxyphenyl)-1-{2-[(1S)-2-hydroxy-1,2-dimethyl-propylamino]-pyrimidin-4-yl}-3-(2-methylbenzyl)-urea] | 37 nM
CCOc1ccc(N(C(=O)NCc2ccccc2Cl)c2ccnc(N[C@@H](C)COC)n2)cc1 [1-(4-Ethoxyphenyl)-1-{2-[(1S)-2-methoxy-1-methyl-ethylamino]-pyrimidin-4-yl}-3-(2-chlorobenzyl)-urea] | 56 nM
